{"source": "paper PMC8905580", "about": "“Aggregation Behavior of Structurally Similar Therapeutic Peptides Investigated by ^1H NMR and All-Atom Molecular Dynamics Simulations” (Molecular Pharmaceutics, 2022)", "key": {"[1]": {"assay": "Visual inspection of samples for turbidity and viscosity", "type": "physicochemical", "details": "all samples 0.1-10 mM acetate salt in 100% H2O, no buffer, no pH adjustment; NMR tube in light box compared with pure water; room temperature", "experimental": "(§1) ^1H NMR experiments were performed at peptide concentrations of 0.1, 0.5, 1, 2, 5, and 10 mM in 100% H2O. Peptide solutions were prepared in glass vials without pH adjustments, as the addition of concentrated acid or base results in local pH variations that might induce aggregation. Diffusion NMR experiments were performed at peptide concentrations of 3 and 10 mM in 100% D2O. Thus, the diffusion NMR results may not be perfectly representative of the situation in the samples in H2O, but general conclusions can still be drawn.\n(§2) The samples were gently agitated, by manual swirling, until the solution appeared visually homogeneous and 450 μL of each sample was transferred to disposable 5 mm NMR tubes (Type 5TA 178 mm from Teknolab Sorbent, Sweden). Aliquots were pipetted slowly to reduce the risk of possible shear-induced aggregation. The time between sample preparation and the start of the NMR measurement was around 15 min. On selected samples, the approximate pH was assessed with pH indicator strips (Scharlau, pH 2.0–9.0, TP0209000S) after aliquots for the NMR samples were taken out.\nThe NMR tubes containing samples were visually inspected in a light box and compared to an NMR tube containing pure water to simplify identification of visually detectable aggregates."}, "[2]": {"assay": "1H NMR in neat H2O, aggregation with concentration and time", "type": "physicochemical", "experimental": "as §1, §2\nNMR experiments were performed at 25 °C on either a Varian Unity Inova 500 MHz spectrometer equipped with a Z-spec DBG500-5EF 5 mm dual broadband gradient probe or a Bruker AVANCE III HD 500 MHz spectrometer equipped with a BBO probe, Bruker SMART probe. Spectra were recorded with an excitation sculpting sequence for solvent suppression.[40] […] On the Varian, 300 scans were used on samples of 0.1–1 mM and 64 on 1–10 mM (1 mM was measured using both settings to bridge the concentration series and ensure comparability), which gave adequate signal for unaggregated samples. […]\nThe absolute integral values (IntC), at each investigated concentration, for signals arising from the methyl groups of leucine (6H; for D-Phe^6-GnRH, cetrorelix, and degarelix) or nor-leucine (3H; for ozarelix) were determined. […] Additionally, IntC of the signal from the acetate counterion (a singlet) were determined for all peptides. […]"}, "[3]": {"set-up": "method as in PMID 33586081", "details": "seen as reduction in total detectable signal and decrease in fraction of sharp signals; cited from earlier work"}, "[4]": {"assay": "Approximate sample pH by pH indicator strips", "type": "physicochemical", "details": "all concentrations and time points investigated, H2O"}}, "note": "Square brackets hold non-standard residues; d marks the D form. Peptide text beside a SMILES is read from it. * marks the point of attachment. dPhe(4-NHCONH2) = NC(=O)Nc1ccc(C[C@@H](N)C(=O)O)cc1; Dihydroorotyl(S) = O=C1C[C@@H](C(=O)*)NC(=O)N1; dPhe(4-Cl) = N[C@H](Cc1ccc(Cl)cc1)C(=O)O; Phe(4-NH2) = Nc1ccc(C[C@H](N)C(=O)O)cc1; d2Nal = N[C@H](Cc1ccc2ccccc2c1)C(=O)O; Lys(iPr) = CC(C)NCCCC[C@H](N)C(=O)O; d3Pal = N[C@H](Cc1cccnc1)C(=O)O"}
{"smiles": "CC(=O)N[C@H](Cc1ccc2ccccc2c1)C(=O)N[C@H](Cc1ccc(Cl)cc1)C(=O)N[C@H](Cc1cccnc1)C(=O)N[C@@H](CO)C(=O)N[C@@H](Cc1ccc(NC(=O)[C@@H]2CC(=O)NC(=O)N2)cc1)C(=O)N[C@H](Cc1ccc(NC(N)=O)cc1)C(=O)N[C@@H](CC(C)C)C(=O)N[C@@H](CCCCNC(C)C)C(=O)N1CCC[C@H]1C(=O)N[C@H](C)C(N)=O", "note": "[degarelix] (Ac-[d2Nal][dPhe(4-Cl)][d3Pal]S[Phe(4-NH2)](Dihydroorotyl(S))[dPhe(4-NHCONH2)]L[Lys(iPr)]P[dA]-NH2)", "values": [{"measurement": "Visual appearance of samples over the investigated time span", "setting": "[1]", "result": "visually clear"}, {"measurement": "Concentration at which a distinct group of broad peaks at 1.2-1.6 ppm (intermediately sized aggregates) appears", "setting": "[2]; 1H NMR, 25 °C, 100% H2O", "result": "≥ 1000", "unit": "µM"}, {"measurement": "Change of 1H NMR spectra over time, 5 and 10 mM samples", "setting": "[2]; 5 and 10 mM in 100% H2O, over investigated timespan (ozarelix: rapid 4 scan experiments about 15 and 25 min after preparation, 24 h)", "result": "increased notably in intensity"}, {"measurement": "Fate of acetate counterions in the peptide aggregates formed (1H NMR acetate signal)", "setting": "[2]; acetate salts, 0.1-10 mM in 100% H2O, 25 °C", "result": "exclusion"}, {"measurement": "Effect of buffer or background salt on aggregation (1H NMR)", "setting": "[3]", "result": "strongly enhance aggregation"}, {"measurement": "Sample pH", "setting": "[4]", "result": "~ 5.5"}]}
